According to US10800792B2, “Inhibitors of Bruton's tyrosine kinase and method of their use” (JANSSEN PHARMACEUTICA NV, priority 2015, dated 2020):

Target: unphosphorylated-BTK kinase domain (UP-BTK), GST-tagged human BTK (389-659aa) (Homo sapiens (Human), UniProt Q06187)
Test: BTK kinase Lanthascreen binding assay
Conditions: unphosphorylated-BTK kinase domain, 50 nM Tracer 236, 60 minutes, pIC50 = negative log of the IC50 in molar; for IC50: read-out: BTK_I_binding pIC50 (converted)
Summary of the method: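 Values are pIC50, i.e. negative log of IC50 in molar, derived from concentration–response fitting. Each compound competes with a fluorescently labelled tracer for the unphosphorylated kinase domain.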

unphosphorylated-BTK kinase domain (UP-BTK), GST-tagged human BTK (389-659aa), sequence (Q06187 389-659): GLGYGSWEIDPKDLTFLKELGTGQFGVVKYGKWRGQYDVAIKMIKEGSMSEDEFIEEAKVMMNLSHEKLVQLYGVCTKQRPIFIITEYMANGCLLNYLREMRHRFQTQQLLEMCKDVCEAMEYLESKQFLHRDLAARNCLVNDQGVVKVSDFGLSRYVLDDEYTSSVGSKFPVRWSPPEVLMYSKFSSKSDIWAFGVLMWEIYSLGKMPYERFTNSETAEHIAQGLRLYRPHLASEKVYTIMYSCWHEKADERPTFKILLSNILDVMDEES

Row | Compound | BTK_I_binding pIC50 | IC50
1 | Cc1ncccc1N1C(=O)Nc2c(C(=O)N[C@@H]3CCCNC3)sc3nccc1c23 [Example 359, (R)-5-(2-Methylpyridin-3-yl)-4-oxo-N-(piperidin-3-yl)-4,5-dihydro-3H-1-thia-3,5,8-triazaacenaphthylene-2-carboxamide] | <5 | –
2 | C=CC(=O)N1CCC[C@@H](NC(=O)c2sc3nccc4c3c2NC(=O)N4c2ccc(Cl)c(Cl)c2)C1 [Example 360, (R)—N-(1-Acryloylpiperidin-3-yl)-5-(3,4-dichlorophenyl)-4-oxo-4,5-dihydro-3H-1-thia-3,5,8-triazaacenaphthylene-2-carboxamide] | 6.7 | –
3 | CC(C)N1C(=O)Nc2c(C(=O)N[C@@H]3CCCNC3)sc3nccc1c23 [Example 361, (R)-5-Isopropyl-4-oxo-N-(piperidin-3-yl)-4,5-dihydro-3H-1-thia-3,5,8-triazaacenaphthylene-2-carboxamide] | <5 | –
4 | C=CC(=O)N1CCC[C@@H](NC(=O)c2sc3nccc4c3c2NC(=O)N4c2ccc(Cl)c(C(F)(F)F)c2)C1 [Example 362, (R)—N-(1-Acryloylpiperidin-3-yl)-5-(4-chloro-3-(trifluoromethyl)phenyl)-4-oxo-4,5-dihydro-3H-1-thia-3,5,8-triazaacenaphthylene-2-carboxamide] | 5.4 | –
5 | [2H]C([2H])([2H])N1CCC[C@@H](NC(=O)c2sc3nccc4c3c2NC(=O)N4c2ccc(Oc3ccccc3)cc2C)C1 [Example 370, (R)-5-(2-Methyl-4-phenoxyphenyl)-N-(1-trideuteriomethylpiperidin-3-yl)-4-oxo-4,5-dihydro-3H-1-thia-3,5,8-triazaacenaphthylene-2-carboxamide] | – | 100 nM
6 | [2H]c1c([2H])c([2H])c(Oc2ccc(N3C(=O)Nc4c(C(=O)N[C@@H]5CCCN(C(=O)C=C)C5)sc5nccc3c45)c(C)c2)c([2H])c1[2H] [Example 375, (R)—N-(1-Acryloylpiperidin-3-yl)-5-(2-methyl-4-(2,3,4,5,6-pentadeuteriophenoxy)phenyl)-4-oxo-4,5-dihydro-3H-1-thia-3,5,8-triazaacenaphthylene-2-carboxamide] | – | 12.6 nM
7 | [2H]c1c([2H])c([2H])c(Oc2ccc(N3C(=O)Nc4c(C(=O)N[C@@H]5CCN(C(=O)C=C)C5)sc5nccc3c45)c(C)c2)c([2H])c1[2H] [Example 376, (R)—N-(1-Acryloylpyrrolidin-3-yl)-5-(2-methyl-4-(2,3,4,5,6-pentadeuteriophenoxy)phenyl)-4-oxo-4,5-dihydro-3H-1-thia-3,5,8-triazaacenaphthylene-2-carboxamide] | – | 15.8 nM
8 | [2H]c1c([2H])c([2H])c(Oc2ccc(N3C(=O)Nc4c(C(=O)N[C@@H]5CCCN(C(=O)/C(C#N)=C/C6CC6)C5)sc5nccc3c45)c(C)c2)c([2H])c1[2H] [Example 378, (R,E)-N-(1-(2-Cyano-3-cyclopropylacryloyl)piperidin-3-yl)-5-(2-methyl-4-(2,3,4,5,6-pentadeuteriophenoxy)phenyl)-4-oxo-4,5-dihydro-3H-1-thia-3,5,8-triazaacenaphthylene-2-carboxamide] | – | 31.6 nM
9 | [2H]c1c([2H])c([2H])c(Oc2ccc(N3C(=O)Nc4c(C(=O)N[C@@H]5CCCN(C#N)C5)sc5nccc3c45)c(C)c2)c([2H])c1[2H] [Example 379, (R)—N-(1-Cyanopiperidin-3-yl)-5-(2-methyl-4-(2,3,4,5,6-pentadeuteriophenoxy)phenyl)-4-oxo-4,5-dihydro-3H-1-thia-3,5,8-triazaacenaphthylene-2-carboxamide] | – | 31.6 nM
10 | [2H]c1c([2H])c([2H])c(Oc2ccc(N3C(=O)Nc4c(C(=O)N[C@@H]5CCCN(C([2H])([2H])[2H])C5)sc5nccc3c45)c(C)c2)c([2H])c1[2H] [Example 380, (R)-5-(2-Methyl-4-(2,3,4,5,6-pentadeuteriophenoxy)phenyl)-N-(1-(trideuteriomethyl)piperidin-3-yl)-4-oxo-4,5-dihydro-3H-1-thia-3,5,8-triazaacenaphthylene-2-carboxamide] | – | 158 nM
11 | [2H]c1c([2H])c([2H])c(Oc2ccc(N3C(=O)Nc4c(C(=O)N[C@@H]5CCCN(C)C5)sc5nccc3c45)c(C)c2)c([2H])c1[2H] [Example 381, (R)-5-(2-Methyl-4-(2,3,4,5,6-pentadeuteriophenoxy)phenyl)-N-(1-methylpiperidin-3-yl)-4-oxo-4,5-dihydro-3H-1-thia-3,5,8-triazaacenaphthylene-2-carboxamide] | – | 79.4 nM

Further lines, with some results ahead:

Row | BTK_I_binding pIC50 | Compound | IC50
12 | 6.9 | COC(C)(C)CC(=O)N1CCC[C@@H](NC(=O)c2sc3nccc4c3c2NC(=O)N4c2ccc(Oc3ccccc3)cc2C)C1 [Example 363, (R)—N-(1-(3-Methoxy-3-methylbutanoyl)piperidin-3-yl)-5-(2-methyl-4-phenoxyphenyl)-4-oxo-4,5-dihydro-3H-1-thia-3,5,8-triazaacenaphthylene-2-carboxamide] | –
13 | 6.8 | CC(=O)N/C=C\C(=O)N1CCC[C@@H](NC(=O)c2sc3nccc4c3c2NC(=O)N4c2ccc(Oc3ccccc3)cc2C)C1 [Example 364, (R,Z)—N-(1-(3-Acetamidoacryloyl)piperidin-3-yl)-5-(2-methyl-4-phenoxyphenyl)-4-oxo-4,5-dihydro-3H-1-thia-3,5,8-triazaacenaphthylene-2-carboxamide] | –
14 | 7.6 | Cc1cc(Oc2ccccc2)ccc1N1C(=O)Nc2c(C(=O)N[C@@H]3CCN(C(=O)/C=C/CN(C)C)C3)sc3nccc1c23 [Example 368, (R,E)-N-(1-(4-(Dimethylamino)but-2-enoyl)pyrrolidin-3-yl)-5-(2-methyl-4-phenoxyphenyl)-4-oxo-4,5-dihydro-3H-1-thia-3,5,8-triazaacenaphthylene-2-carboxamide] | –
15 | 7.8 | C=CS(=O)(=O)N1CC[C@@H](NC(=O)c2sc3nccc4c3c2NC(=O)N4c2ccc(Oc3ccccc3)cc2C)C1 [Example 369, (R)-5-(2-Methyl-4-phenoxyphenyl)-4-oxo-N-(1-(vinylsulfonyl)pyrrolidin-3-yl)-4,5-dihydro-3H-1-thia-3,5,8-triazaacenaphthylene-2-carboxamide] | –
16 | 7.0 | Cc1cc(Oc2ccccc2)ccc1N1C(=O)Nc2c(C(=O)N[C@@H]3CCCN(C(=O)/C=C/CN(C)C)C3)sc3nccc1c23 [Example 371, (R,E)-N-(1-(4-(Dimethylamino)but-2-enoyl)piperidin-3-yl)-5-(2-methyl-4-phenoxyphenyl)-4-oxo-4,5-dihydro-3H-1-thia-3,5,8-triazaacenaphthylene-2-carboxamide] | –
17 | 7.6 | C=CS(=O)(=O)N1CCC[C@@H](NC(=O)c2sc3nccc4c3c2NC(=O)N4c2ccc(Oc3ccccc3)cc2C)C1 [Example 372, (R)-5-(2-Methyl-4-phenoxyphenyl)-4-oxo-N-(1-(vinylsulfonyl)piperidin-3-yl)-4,5-dihydro-3H-1-thia-3,5,8-triazaacenaphthylene-2-carboxamide] | –
18 | 7.3 | CN(C)C/C=C/C(=O)N1CCC[C@@H](NC(=O)c2sc3nccc4c3c2NC(=O)N4c2ccc(Oc3ccccc3)cc2)C1 [Example 373, (R,E)-N-(1-(4-(Dimethylamino)but-2-enoyl)piperidin-3-yl)-4-oxo-5-(4-phenoxyphenyl)-4,5-dihydro-3H-1-thia-3,5,8-triazaacenaphthylene-2-carboxamide] | –
19 | 7.0 | Cc1cc(Oc2ccccc2)ccc1N1C(=O)Nc2c(C(=O)N[C@@H]3CCCN(C(=O)/C=C/CS(C)(=O)=O)C3)sc3nccc1c23 [Example 374, (R,E)-5-(2-Methyl-4-phenoxyphenyl)-N-(1-(4-(methylsulfonyl)but-2-enoyl)piperidin-3-yl)-4-oxo-4,5-dihydro-3H-1-thia-3,5,8-triazaacenaphthylene-2-carboxamide] | –
20 | 7.5 | CNC/C=C/C(=O)N1CC[C@@H](NC(=O)c2sc3nccc4c3c2NC(=O)N4c2ccc(Oc3ccccc3)cc2C)C1 [Example 377, (R,E)-5-(2-Methyl-4-phenoxyphenyl)-N-(1-(4-(methylamino)but-2-enoyl)pyrrolidin-3-yl)-4-oxo-4,5-dihydro-3H-1-thia-3,5,8-triazaacenaphthylene-2-carboxamide] | –
21 | 7.3 | Cc1cc(Oc2ccccc2)ccc1N1C(=O)Nc2c(C(=O)N[C@@H]3CCN(C(=O)/C=C/CN)C3)sc3nccc1c23 [Example 382, (R,E)-N-(1-(4-Aminobut-2-enoyl)pyrrolidin-3-yl)-5-(2-methyl-4-phenoxyphenyl)-4-oxo-4,5-dihydro-3H-1-thia-3,5,8-triazaacenaphthylene-2-carboxamide] | –
22 | 7.2 | Cc1cc(Oc2ccccc2)ccc1N1C(=O)Nc2c(C(=O)N[C@@H]3CCCN(C(=O)/C=C/CNS(C)(=O)=O)C3)sc3nccc1c23 [Example 383, (R,E)-5-(2-Methyl-4-phenoxyphenyl)-N-(1-(4-(methylsulfonamido)but-2-enoyl)piperidin-3-yl)-4-oxo-4,5-dihydro-3H-1-thia-3,5,8-triazaacenaphthylene-2-carboxamide] | –
23 | 7.1 | Cc1cc(Oc2ccccc2)ccc1N1C(=O)Nc2c(C(=O)N[C@@H]3CCN(C(=O)CN(C)C)C3)sc3nccc1c23 [Example 384, (R)—N-(1-(2-(Dimethylamino)acetyl)pyrrolidin-3-yl)-5-(2-methyl-4-phenoxyphenyl)-4-oxo-4,5-dihydro-3H-1-thia-3,5,8-triazaacenaphthylene-2-carboxamide] | –
24 | 7.9 | C/C=C(\C#N)C(=O)N1CCC[C@@H](NC(=O)c2sc3nccc4c3c2NC(=O)N4c2ccc(Oc3ccccc3)cc2C)C1 [Example 385, (R,E)-N-(1-(2-Cyanobut-2-enoyl)piperidin-3-yl)-5-(2-methyl-4-phenoxyphenyl)-4-oxo-4,5-dihydro-3H-1-thia-3,5,8-triazaacenaphthylene-2-carboxamide] | –
